Laboratory results published in ChEMBL document CHEMBL1201862, “PubChem BioAssay data set” (2004).
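Following 48 hours of exposure in 96-well plates, responses at five concentrations were used to interpolate endpoints linearly. GI50 marks 50% less growth.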 Activity calls are given as the source filed them. Cut-off read from the data, not from the text of the source: active = GI50 up to about 1.1 µM and inactive = higher.

What was measured:
Test in all cases: growth of human tumour cells (NCI), 48 h
A498 = tested on: A498
A549 = tested on: A549
ACHN = tested on: ACHN
DU-145 = tested on: DU-145
EKVX = tested on: EKVX
HCC 2998 = tested on: HCC 2998
HOP-92 = tested on: HOP-92
Hs-578T = tested on: Hs-578T
IGROV-1 = tested on: IGROV-1
K562 = tested on: K562
LOX IMVI = tested on: LOX IMVI
MDA-MB-231 = tested on: MDA-MB-231
MOLT-4 = tested on: MOLT-4
NCI/ADR-RES = tested on: NCI/ADR-RES
SF-268 = tested on: SF-268
SF-539 = tested on: SF-539
SK-OV-3 = tested on: SK-OV-3
T47D = tested on: T47D
U-251 = tested on: U-251
UACC-62 = tested on: UACC-62

Cc1ccc2c(=O)c3c(O)c4c(cc3n(C)c2c1)OC(C)(C)C=C4
GI50 (A498): > 10 µM (inactive) | GI50 (A549): > 10 µM (inactive) | GI50 (ACHN): > 10 µM (inactive) | GI50 (DU-145): > 10 µM (inactive) | GI50 (EKVX): > 10 µM (inactive) | GI50 (HCC 2998): > 10 µM (inactive) | GI50 (HOP-92): > 10 µM (inactive) | GI50 (Hs-578T): > 10 µM (inactive) | GI50 (IGROV-1): > 10 µM (inactive) | GI50 (K562): > 10 µM (inactive) | GI50 (LOX IMVI): > 10 µM (inactive) | GI50 (MDA-MB-231): > 10 µM (inactive) | GI50 (MOLT-4): > 10 µM (inactive) | GI50 (NCI/ADR-RES): > 10 µM (inactive) | GI50 (SF-268): > 10 µM (inactive) | GI50 (SF-539): > 10 µM (inactive) | GI50 (SK-OV-3): > 10 µM (inactive) | GI50 (T47D): > 10 µM (inactive) | GI50 (U-251): > 10 µM (inactive) | GI50 (UACC-62): > 10 µM (inactive)

CN(C)Cc1cc(/N=N/c2ccccc2Cl)ccc1O
GI50 (A498): 12.7 µM (inactive) | GI50 (A549): 9.12 µM (inactive) | GI50 (ACHN): 12.1 µM (inactive) | GI50 (DU-145): 23.5 µM (inactive) | GI50 (EKVX): 49.3 µM (inactive) | GI50 (HCC 2998): 13.5 µM (inactive) | GI50 (HOP-92): 17.1 µM (inactive) | GI50 (Hs-578T): 16.7 µM (inactive) | GI50 (IGROV-1): 25.8 µM (inactive) | GI50 (K562): 16.7 µM (inactive) | GI50 (LOX IMVI): 12.6 µM (inactive) | GI50 (MDA-MB-231): 18.2 µM (inactive) | GI50 (MOLT-4): 5.48 µM (inactive) | GI50 (NCI/ADR-RES): 25.4 µM (inactive) | GI50 (SF-268): 25.1 µM (inactive) | GI50 (SF-539): 24.3 µM (inactive) | GI50 (SK-OV-3): 39.2 µM (inactive) | GI50 (T47D): 17.7 µM (inactive) | GI50 (U-251): 23.7 µM (inactive) | GI50 (UACC-62): 18.6 µM (inactive)

CC1=CC(=O)/C(=C/Nc2nc(-c3ccc([N+](=O)[O-])cc3)cs2)C(=O)O1
GI50 (A498): 80 µM (inactive) | GI50 (A549): > 100 µM (inactive) | GI50 (ACHN): > 100 µM (inactive) | GI50 (DU-145): > 100 µM (inactive) | GI50 (EKVX): > 100 µM (inactive) | GI50 (HCC 2998): > 100 µM (inactive) | GI50 (HOP-92): > 100 µM (inactive) | GI50 (Hs-578T): > 100 µM (inactive) | GI50 (IGROV-1): > 100 µM (inactive) | GI50 (K562): > 100 µM (inactive) | GI50 (LOX IMVI): > 100 µM (inactive) | GI50 (MDA-MB-231): > 100 µM (inactive) | GI50 (MOLT-4): 61.4 µM (inactive) | GI50 (NCI/ADR-RES): > 100 µM (inactive) | GI50 (SF-268): > 100 µM (inactive) | GI50 (SF-539): > 100 µM (inactive) | GI50 (SK-OV-3): > 100 µM (inactive) | GI50 (T47D): > 100 µM (inactive) | GI50 (U-251): > 100 µM (inactive) | GI50 (UACC-62): > 100 µM (inactive)

O=C(Cc1nc2ccccc2[nH]c1=O)c1c[nH]c2ccccc12
GI50 (A498): 14.7 µM (inactive) | GI50 (A549): 10.9 µM (inactive) | GI50 (ACHN): 10.5 µM (inactive) | GI50 (DU-145): 15.2 µM (inactive) | GI50 (EKVX): 29.6 µM (inactive) | GI50 (HCC 2998): 13.3 µM (inactive) | GI50 (HOP-92): 23.2 µM (inactive) | GI50 (Hs-578T): 49 µM (inactive) | GI50 (IGROV-1): 20.3 µM (inactive) | GI50 (K562): 6.07 µM (inactive) | GI50 (LOX IMVI): 13.7 µM (inactive) | GI50 (MDA-MB-231): 19.1 µM (inactive) | GI50 (MOLT-4): 6.01 µM (inactive) | GI50 (NCI/ADR-RES): 8.65 µM (inactive) | GI50 (SF-268): > 100 µM (inactive) | GI50 (SF-539): 19.2 µM (inactive) | GI50 (SK-OV-3): 18.1 µM (inactive) | GI50 (T47D): 12.2 µM (inactive) | GI50 (U-251): 13.7 µM (inactive) | GI50 (UACC-62): 13.6 µM (inactive)

COc1cc2c(cc1OCCCC(=O)Nc1cc(C(=O)Nc3cc(C(=O)Nc4cc(C(=O)NCCCN(C)C)n(C)c4)n(C)c3)n(C)c1)N=C[C@@H]1CCCN1C2=O
GI50 (A498): 13.2 µM (inactive) | GI50 (A549): 11.2 µM (inactive) | GI50 (ACHN): 1.61 µM (inactive) | GI50 (DU-145): 3.47 µM (inactive) | GI50 (EKVX): 2.89 µM (inactive) | GI50 (HCC 2998): 14.2 µM (inactive) | GI50 (HOP-92): 1.88 µM (inactive) | GI50 (Hs-578T): 2.94 µM (inactive) | GI50 (IGROV-1): 3.1 µM (inactive) | GI50 (K562): 2.19 µM (inactive) | GI50 (LOX IMVI): 0.933 µM (active) | GI50 (MDA-MB-231): 2.3 µM (inactive) | GI50 (MOLT-4): 3.2 µM (inactive) | GI50 (NCI/ADR-RES): 2.22 µM (inactive) | GI50 (SF-268): 1.63 µM (inactive) | GI50 (SF-539): 3.42 µM (inactive) | GI50 (SK-OV-3): 14.6 µM (inactive) | GI50 (T47D): 1.79 µM (inactive) | GI50 (U-251): 1.6 µM (inactive) | GI50 (UACC-62): 2.19 µM (inactive)

CC(C)C1SCc2nc3ccccc3n21 (stereo not given)
GI50 (A498): 30.1 µM (inactive) | GI50 (A549): 37.9 µM (inactive) | GI50 (ACHN): 19.7 µM (inactive) | GI50 (DU-145): 91.4 µM (inactive) | GI50 (EKVX): 32.4 µM (inactive) | GI50 (HCC 2998): 78 µM (inactive) | GI50 (HOP-92): 16.3 µM (inactive) | GI50 (Hs-578T): 36.1 µM (inactive) | GI50 (IGROV-1): 24.4 µM (inactive) | GI50 (K562): 34.5 µM (inactive) | GI50 (LOX IMVI): 35.4 µM (inactive) | GI50 (MDA-MB-231): 24.2 µM (inactive) | GI50 (MOLT-4): 20 µM (inactive) | GI50 (NCI/ADR-RES): 29.4 µM (inactive) | GI50 (SF-268): 64.3 µM (inactive) | GI50 (SF-539): 38.2 µM (inactive) | GI50 (SK-OV-3): > 100 µM (inactive) | GI50 (T47D): 58.1 µM (inactive) | GI50 (U-251): 51.4 µM (inactive) | GI50 (UACC-62): 35.1 µM (inactive)

OCC(CN1CCCCC1)(CN1CCCCC1)CN1CCCCC1
GI50 (A498): > 100 µM (inactive) | GI50 (A549): > 100 µM (inactive) | GI50 (ACHN): > 100 µM (inactive) | GI50 (DU-145): > 100 µM (inactive) | GI50 (EKVX): > 100 µM (inactive) | GI50 (HCC 2998): > 100 µM (inactive) | GI50 (HOP-92): > 100 µM (inactive) | GI50 (Hs-578T): > 100 µM (inactive) | GI50 (IGROV-1): > 100 µM (inactive) | GI50 (K562): > 100 µM (inactive) | GI50 (LOX IMVI): > 100 µM (inactive) | GI50 (MDA-MB-231): > 100 µM (inactive) | GI50 (MOLT-4): > 100 µM (inactive) | GI50 (NCI/ADR-RES): > 100 µM (inactive) | GI50 (SF-268): > 100 µM (inactive) | GI50 (SF-539): > 100 µM (inactive) | GI50 (SK-OV-3): > 100 µM (inactive) | GI50 (T47D): > 100 µM (inactive) | GI50 (U-251): > 100 µM (inactive) | GI50 (UACC-62): > 100 µM (inactive)

O=C(O)C1(Cc2ccc3c(c2)CCC3)Cc2ccccc2C1=O (stereo not given)
GI50 (A498): 42.5 µM (inactive) | GI50 (A549): 42.3 µM (inactive) | GI50 (ACHN): 45.4 µM (inactive) | GI50 (DU-145): 75.3 µM (inactive) | GI50 (EKVX): 63.2 µM (inactive) | GI50 (HCC 2998): 43.5 µM (inactive) | GI50 (HOP-92): 20.8 µM (inactive) | GI50 (Hs-578T): 47.4 µM (inactive) | GI50 (IGROV-1): 57.8 µM (inactive) | GI50 (K562): 50.5 µM (inactive) | GI50 (LOX IMVI): 78 µM (inactive) | GI50 (MDA-MB-231): > 100 µM (inactive) | GI50 (MOLT-4): 91.4 µM (inactive) | GI50 (NCI/ADR-RES): 58.1 µM (inactive) | GI50 (SF-268): 63.8 µM (inactive) | GI50 (SF-539): 49.1 µM (inactive) | GI50 (SK-OV-3): 50.6 µM (inactive) | GI50 (T47D): 40.9 µM (inactive) | GI50 (U-251): 38.4 µM (inactive) | GI50 (UACC-62): 57.9 µM (inactive)

CC(=O)OC12CC(C)C3(O)C4C=C(C)C(=O)[C@@]4(O)CC(CO)=C[C@H]3C1C2(C)C (stereo not given in full)
GI50 (A498): 0.41 µM (active) | GI50 (A549): 2.38 µM (inactive) | GI50 (ACHN): > 10 µM (inactive) | GI50 (DU-145): > 10 µM (inactive) | GI50 (EKVX): > 10 µM (inactive) | GI50 (HCC 2998): 4.21 µM (inactive) | GI50 (HOP-92): 65.8 µM (inactive) | GI50 (Hs-578T): 0.82 µM (active) | GI50 (IGROV-1): > 10 µM (inactive) | GI50 (K562): 0.494 µM (active) | GI50 (LOX IMVI): > 10 µM (inactive) | GI50 (MDA-MB-231): > 10 µM (inactive) | GI50 (MOLT-4): > 1000 µM (inactive) | GI50 (NCI/ADR-RES): > 10 µM (inactive) | GI50 (SF-268): > 10 µM (inactive) | GI50 (SF-539): > 10 µM (inactive) | GI50 (SK-OV-3): 794 µM (inactive) | GI50 (T47D): > 100 µM (inactive) | GI50 (U-251): > 10 µM (inactive) | GI50 (UACC-62): 771 µM (inactive)
